The target in test [1] is T1, RORγt (Homo sapiens, UniProt P51449).
T1 sequence (P51449 1-497 isoform P51449-2): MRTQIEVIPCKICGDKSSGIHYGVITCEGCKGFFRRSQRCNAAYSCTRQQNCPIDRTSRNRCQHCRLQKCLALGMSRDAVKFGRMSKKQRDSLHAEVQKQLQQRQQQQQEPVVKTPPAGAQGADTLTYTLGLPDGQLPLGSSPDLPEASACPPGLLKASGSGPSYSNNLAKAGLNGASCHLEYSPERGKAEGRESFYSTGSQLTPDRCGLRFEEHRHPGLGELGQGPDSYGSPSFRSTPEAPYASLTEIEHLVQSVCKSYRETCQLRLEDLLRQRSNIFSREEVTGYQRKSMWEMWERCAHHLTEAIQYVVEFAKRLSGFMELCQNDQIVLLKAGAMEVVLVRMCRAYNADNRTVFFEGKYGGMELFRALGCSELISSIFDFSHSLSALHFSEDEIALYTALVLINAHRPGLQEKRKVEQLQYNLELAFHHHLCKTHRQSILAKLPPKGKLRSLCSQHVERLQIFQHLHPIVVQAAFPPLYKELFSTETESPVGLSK
Kind of test: RORγt binding test (TR-FRET, fluorescent-labeled cholesterol). The conditions noted are these: binding inhibitory rate of fluorescent-labeled cholesterol to RORγt at test compound 1 μM. As for the experimental part: The binding activity of the test compound to RORγt was measured by a time resolved fluorescence resonance energy transfer method (TR-FRET) utilizing histidine-tagged RORγt, fluorescent-labeled cholesterol (BODIPY-cholesterol, AVIVA) and terbium-labeled anti-histidine tag antibody (Invitrogen). First, a test compound diluted with an assay buffer (20 mM Tris-HCl (pH 7.5), 100 mM NaCl, 1 mM DTT, 0.1% BSA) was added to a 384 well plate by 3 μL each. Then, RORγt diluted with an assay buffer to 240 nM was added by 3 μL each, after which fluorescent-labeled cholesterol diluted with the assay buffer to 12 μM was added by 3 μL each, and the mixture was stood at room temperature for 20 min. Thereafter, a terbium-labeled anti-histidine tag antibody diluted with the assay buffer to 8 nM was added by 3 μL each. The mixture was stood at room temperature for 20 min, and fluorescence intensity (excitation wavelength 320 nm, fluorescence wavelength 520 nm, delay time 100 microseconds) was measured by Envision (PerkinElmer).

Test [2] deals with T1, RORγt. The test can be described thus: Cofactor recruitment test (Alpha Screen, biotinylated SRC-1 peptide). It is filed as biochemical. The conditions noted are these: test compound 1 μM; for inhibition at 1 µM: read-out: signal value inhibitory rate (%). As for the experimental part: Cofactor Recruitment Test
Cofactor recruitment test was performed by Alpha Screen (Histidine Detection Kit, PerkinElmer) method. First, a test compound diluted with an assay buffer (50 mM Tris-HCl (pH 7.5), 50 mM KCl, 1 mM DTT, 0.1% BSA) was added to a 384 well plate by 5 μL each. […] The mixture was stood in a dark place for 1 hr, and the signal value was measured by Envision (PerkinElmer).

For test [3], the target named is T1, RORγt. Kind of test: Jurkat reporter test (IL-17 ROR response element luciferase). The conditions noted are these: test compound 3 μM, Jurkat cells; for inhibition at 3 µM: Jurkat, read-out: luminescence level inhibitory rate (%). It is filed as cell-based. The arrangement: expressed in transfected cells; host or cells: Jurkat cells. The procedure: The Jurkat cells used for the reporter test were cultured in a culture medium (RPMI (Invitrogen), 10% FCS (AusGeneX), 100 U/mL penicillin, 100 μg/mL streptomycin). On the day of the test, 4×10^7 cells were recovered by a centrifugal operation (1000 rpm, 5 min.) and suspended in PBS (phosphate buffered saline) (Invitrogen). Thereafter, the cells were recovered again by a centrifugal operation, and suspended in 2 mL of R buffer (NEON transfection kit, Invitrogen). […] Gene transfer was performed by Electroporation apparatus (NEON, Invitrogen) under the conditions of pulse voltage 1350 V, interval 10 milliseconds, number of times 3. The cells after gene transfer were suspended in 40 mL of a reaction medium (RPMI, 10% Lipid reduced FCS (HyClone), 10 mM HEPES (pH 7.5), 100 U/mL penicillin, 100 μg/mL streptomycin, 5 μM lovastatin), and plated in a 96 well plate by 90 μL each. A test compound diluted with the reaction medium was added by 10 μL each, and the cells were cultured overnight in an incubator. Bright-Glo (Promega) was added by 100 μL each, and the mixture was stirred at room temperature for 10 min, and the luminescence level was measured by Envision (PerkinElmer).

On to `CCn1c(=O)n(CC2CC2)c(=O)c2cc(NC(=O)CC[C@H](O)C(=O)Nc3ccc(C#N)c(Cl)c3)ccc21` [Example 139, (2S)—N^1-(3-chloro-4-cyanophenyl)-N^5-(3-(cyclopropylmethyl)-1-ethyl-2,4-dioxo-1,2,3,4-tetrahydroquinazolin-6-yl)-2-hydroxypentanediamide], for which the inhibition at 1 µM on RORγt [1] and on RORγt [2] was 102% each time. Further, at RORγt [3], the inhibition at 3 µM came out at 104%.

On to `CCn1c(=O)n(CC2CC2)c(=O)c2cc(NC(=O)[C@@H](O)CCC(=O)Nc3ccc(C#N)c(Cl)c3)ccc21` [Example 141, (2S)—N^5-(3-chloro-4-cyanophenyl)-N^1-(3-(cyclopropylmethyl)-1-ethyl-2,4-dioxo-1,2,3,4-tetrahydroquinazolin-6-yl)-2-hydroxypentanediamide], for which the inhibition at 1 µM at RORγt [1] and at RORγt [2] was 102% throughout. On RORγt [3], the inhibition at 3 µM stood at 103%.

On to `CCn1c(=O)c2cc(C(=O)NCC(CC(=O)Nc3ccc(C#N)c(Cl)c3)C(C)C)ccc2n(CC)c1=O` (centres unmarked) [Example 35, N-(4-((3-chloro-4-cyanophenyl)amino)-2-isopropyl-4-oxobutyl)-1,3-diethyl-2,4-dioxo-1,2,3,4-tetrahydroquinazoline-6-carboxamide], for which, at RORγt [1] (1 µM), the “binding inhibitory rate (%)” value is 102.0%. In addition, the “signal value inhibitory rate (%)” value on RORγt [2] (1 µM) worked out at 105.0%. At RORγt [3] (3 µM), the “luminescence level inhibitory rate (%)” value is 122.0%.

`CCn1c(=O)n(CCOC)c(=O)c2cc(NC(=O)CC(C)CC(=O)Nc3ccc(C#N)c(Cl)c3)ccc21` (centres unmarked) [Example 20, N-(3-chloro-4-cyanophenyl)-N′-(1-ethyl-3-(2-methoxyethyl)-2,4-dioxo-1,2,3,4-tetrahydroquinazolin-6-yl)-3-methylpentanediamide]: the results for the inhibition at 1 µM at RORγt [1] and on RORγt [2] were 101% and 105%, respectively. Moreover, the inhibition at 3 µM at RORγt [3] was 116%.

For `C#CCn1c(=O)c2cc(NC(=O)CC(C)CC(=O)Nc3ccc(C#N)c(Cl)c3)ccc2n(CC)c1=O` (centres unmarked) [Example 28, N-(3-chloro-4-cyanophenyl)-N′-(1-ethyl-2,4-dioxo-3-(prop-2-yn-1-yl)-1,2,3,4-tetrahydroquinazolin-6-yl)-3-methylpentanediamide], the inhibition at 1 µM came to 99.3% at RORγt [1] and 105% on RORγt [2]. In addition, the inhibition at 3 µM on RORγt [3] is 115%.

Regarding `CC(CC(=O)Nc1ccc(C#N)c(Cl)c1)CC(=O)Nc1cc2c(=O)n(CC3CC3)c(=O)n(CC3CC3)c2cn1` (centres unmarked) [Example 113, N-(1,3-bis(cyclopropylmethyl)-2,4-dioxo-1,2,3,4-tetrahydropyrido[3,4-d]pyrimidin-6-yl)-N′-(3-chloro-4-cyanophenyl)-3-methylpentanediamide], the inhibition at 1 µM on RORγt [1] amounted to 103%; at RORγt [2], 102%. The inhibition at 3 µM on RORγt [3] turned out to be 96.5%.

As to `CCn1c(=O)n(CSC)c(=O)c2cc(NC(=O)CC(C)CC(=O)Nc3ccc(C#N)c(Cl)c3)ccc21` (centres unmarked) [Example 65, N-(3-chloro-4-cyanophenyl)-N′-(1-ethyl-3-((methylsulfanyl)methyl)-2,4-dioxo-1,2,3,4-tetrahydroquinazolin-6-yl)-3-methylpentanediamide], the inhibition at 1 µM on RORγt [1] was found to be 100%; on RORγt [2], 102%. Besides, the inhibition at 3 µM on RORγt [3] came out at 102%.

As for `CC(CC(=O)Nc1ccc(C#N)c(Cl)c1)CC(=O)Nc1ccc2c(c1)c(=O)n(CC1CC1)c(=O)n2C(C)C` (centres unmarked) [Example 144, N-(3-chloro-4-cyanophenyl)-N′-(3-(cyclopropylmethyl)-1-isopropyl-2,4-dioxo-1,2,3,4-tetrahydroquinazolin-6-yl)-3-methylpentanediamide], at RORγt [2], the inhibition at 1 µM was 102%. For the same compound, the inhibition at 3 µM at RORγt [3] stood at 103%.

Consider `CCn1c(=O)c2cc(NC(=O)CC(C)CC(=O)Nc3ccc(C#N)c(Cl)c3)c(F)cc2n(CC)c1=O` (centres unmarked) [Example 130, N-(3-chloro-4-cyanophenyl)-N′-(1,3-diethyl-7-fluoro-2,4-dioxo-1,2,3,4-tetrahydroquinazolin-6-yl)-3-methylpentanediamide], for which the inhibition at 1 µM at RORγt [1] amounted to 101%; on RORγt [2], 102%. On RORγt [3], the inhibition at 3 µM was 101%.

On to `CC(C)n1c(=O)n(CC2CC2)c(=O)c2cc(NC(=O)CC(C)(O)CC(=O)Nc3ccc(C#N)c(Cl)c3)ccc21` (centres unmarked) [Example 142, N-(3-chloro-4-cyanophenyl)-N′-(3-(cyclopropylmethyl)-1-isopropyl-2,4-dioxo-1,2,3,4-tetrahydroquinazolin-6-yl)-3-hydroxy-3-methylpentanediamide], for which, at RORγt [2], the inhibition at 1 µM is 103%. The inhibition at 3 µM at RORγt [3] was 103%.

On to `CCn1c(=O)c2cc(NC(=O)CC(C)CC(=O)Nc3ccc(C#N)c(Cl)c3)ccc2n(C[Si](C)(C)C)c1=O` (centres unmarked) [Example 126, N-(3-chloro-4-cyanophenyl)-N′-(3-ethyl-2,4-dioxo-1-((trimethylsilyl)methyl)-1,2,3,4-tetrahydroquinazolin-6-yl)-3-methylpentanediamide], for which the inhibition at 1 µM at RORγt [1] is 103%; on RORγt [2], 100%. At RORγt [3], the inhibition at 3 µM was determined as 102%.

Consider `CC(CC(=O)Nc1ccc(C#N)c(Cl)c1)CC(=O)Nc1ccc2c(c1)C(=O)N(CC1CC1)C(=O)C21CCCC1` (centres unmarked) [Example 145, N-(3-chloro-4-cyanophenyl)-N′-(2′-(cyclopropylmethyl)-1′,3′-dioxo-2′,3′-dihydro-1′H-spiro[cyclopentane-1,4′-isoquinoline]-7′-yl)-3-methylpentanediamide], for which, on RORγt [2], the inhibition at 1 µM was 103%. Further, the inhibition at 3 µM on RORγt [3] was 103%.

Take `CCn1c(=O)n(CCCOC)c(=O)c2cc(NC(=O)CC(C)CC(=O)Nc3ccc(C#N)c(Cl)c3)ccc21` (centres unmarked) [Example 21, N-(3-chloro-4-cyanophenyl)-N′-(1-ethyl-3-(3-methoxypropyl)-2,4-dioxo-1,2,3,4-tetrahydroquinazolin-6-yl)-3-methylpentanediamide]: the inhibition at 1 µM at RORγt [1] was determined as 103%; at RORγt [2], 104%. On RORγt [3], the inhibition at 3 µM was 118%.

Turning to `CCN1Cc2cc(NC(=O)CC(C)CC(=O)Nc3ccc(C#N)c(Cl)c3)ccc2N(CC)C1=O` (centres unmarked) [Example 16, N-(3-chloro-4-cyanophenyl)-N′-(1,3-diethyl-2-oxo-1,2,3,4-tetrahydroquinazolin-6-yl)-3-methylpentanediamide], the inhibition at 1 µM stood at 92.8% at RORγt [1] and 104% on RORγt [2]. Moreover, on RORγt [3], the inhibition at 3 µM was 117%.

With `CC(O)(CC(=O)Nc1ccc(C#N)c(Cl)c1)CC(=O)Nc1ccc2c(c1)c(=O)n(CC1CC1)c(=O)n2CC1CC1` (centres unmarked) [Example 102, N-(1,3-bis(cyclopropylmethyl)-2,4-dioxo-1,2,3,4-tetrahydroquinazolin-6-yl)-N′-(3-chloro-4-cyanophenyl)-3-hydroxy-3-methylpentanediamide], the results for the inhibition at 1 µM on RORγt [1] and at RORγt [2] were 103% and 104%, respectively. Besides, the inhibition at 3 µM on RORγt [3] turned out to be 104%.

For the compound `CCn1c(=O)c2cc(NC(=O)CC(C)CC(=O)Nc3ccc(C#N)c(Cl)c3)ncc2n(CC)c1=O` (centres unmarked) [Example 124, N-(3-chloro-4-cyanophenyl)-N′-(1,3-diethyl-2,4-dioxo-1,2,3,4-tetrahydropyrido[3,4-d]pyrimidin-6-yl)-3-methylpentanediamide], on RORγt [2], the inhibition at 1 µM was determined as 101%. The inhibition at 3 µM on RORγt [3] stood at 100%.

The values are drawn from US9834520B2, “Heterocyclic compound” (TAKEDA PHARMACEUTICAL COMPANY LIMITED, priority 2013, dated 2017).
